# Measured values from patent EP2776398B1, “SUBSTITUTED PYRAZOLYL-BASED UREA DERIVATIVES AS VANILLOID RECEPTOR LIGANDS” (Medifron DBT Inc., priority 2011, dated 2013).
# Molecular target: T1, vanilloid receptor 1 (VR1/TRPV1 receptor) (Homo sapiens, UniProt Q8NER1)
# T1 construct: expressed in transfected cells; host or cells: CHO K1 cells (ECACC), stably transfected
# Assay: Functional testing on vanilloid receptor 1: FLIPR Ca2+ influx assay against capsaicin (Cap) in transfected CHO K1 cells (pharmacological method II); as to Ki: 100 nM capsaicin
# Assay type: cell-based
# Design: key to (f) Ki (human being) [nM] Cap: agonist classification: AG = agonist
# Conditions: human VR1 in CHO K1 cells; AG printed instead of a Ki
# Description: […]
# T1 sequence (Q8NER1 whole entry): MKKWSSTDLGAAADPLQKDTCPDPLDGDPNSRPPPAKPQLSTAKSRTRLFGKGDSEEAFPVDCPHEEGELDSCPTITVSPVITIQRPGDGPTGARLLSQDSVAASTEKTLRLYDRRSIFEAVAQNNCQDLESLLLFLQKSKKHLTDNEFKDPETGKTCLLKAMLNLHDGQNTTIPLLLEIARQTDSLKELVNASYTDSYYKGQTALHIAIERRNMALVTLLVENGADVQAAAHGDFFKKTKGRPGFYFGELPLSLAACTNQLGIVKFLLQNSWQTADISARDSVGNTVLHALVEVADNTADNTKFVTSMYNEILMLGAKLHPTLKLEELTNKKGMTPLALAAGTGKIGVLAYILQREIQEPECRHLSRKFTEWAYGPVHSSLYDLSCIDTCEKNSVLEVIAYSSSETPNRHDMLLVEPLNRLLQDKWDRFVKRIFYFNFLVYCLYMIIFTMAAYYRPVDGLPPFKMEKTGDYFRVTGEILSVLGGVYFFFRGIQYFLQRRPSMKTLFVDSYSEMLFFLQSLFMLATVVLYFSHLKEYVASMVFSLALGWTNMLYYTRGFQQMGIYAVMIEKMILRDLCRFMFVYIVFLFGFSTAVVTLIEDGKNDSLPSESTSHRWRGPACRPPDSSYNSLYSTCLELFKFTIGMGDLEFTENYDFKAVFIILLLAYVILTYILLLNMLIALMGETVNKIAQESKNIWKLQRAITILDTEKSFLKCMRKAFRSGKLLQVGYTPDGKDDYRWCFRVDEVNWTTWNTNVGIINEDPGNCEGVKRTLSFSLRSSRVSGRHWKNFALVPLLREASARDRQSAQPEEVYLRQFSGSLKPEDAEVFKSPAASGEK
row,SMILES,(f) Ki (human being) [nM] Cap: agonist classification
1,"COc1cc(C(C)C(=O)NCc2cc(C(C)(C)C)nn2-c2cccc(Cl)c2)ccc1CO (centres unmarked) [A49, N-[[5-tert-Butyl-2-(3-chlorophenyl)-2H-pyrazol-3-yl]-methyl]-2-[4-(hydroxymethyl)-3-methoxy-phenyl]-propionamide]",AG
2,"CC(C(=O)NCc1cc(C(C)(C)C)nn1-c1cccc(Cl)c1)c1ccc(CO)c(Cl)c1 (centres unmarked) [A51, N-[[5-tert-Butyl-2-(3-chlorophenyl)-2H-pyrazol-3-yl]-methyl]-2-[3-chloro-4-(hydroxymethyl)-phenyl]-propionamide]",AG

# Same assay, conditions: read-out: (f) Ki (human being) [nM] Cap
row,SMILES,Ki [nM]
1,"COc1cc(C(C)C(=O)NCc2cc(C(F)(F)F)nn2-c2cccc(Cl)c2)ccc1CO (centres unmarked) [A50, N-[[2-(3-Chlorophenyl)-5-(trifluoromethyl)-2H-pyrazol-3-yl]-methyl]-2-[4-(hydroxymethyl)-3-methoxy-phenyl]-propionamide]",1
2,"CC(C(=O)NCc1cc(C(F)(F)F)nn1-c1cccc(Cl)c1)c1cc(F)c(CO)c(F)c1 (centres unmarked) [A52, N-[[2-(3-Chlorophenyl)-5-(trifluoromethyl)-2H-pyrazol-3-yl]-methyl]-2-[3,5-difluoro-4-(hydroxymethyl)-phenyl]-propionamide]",140
3,"O=C(NCc1cc(C2CC2)nn1-c1cccc(Cl)c1)Nc1ccc(CO)c(F)c1 [A53, 1-[[2-(3-Chlorophenyl)-5-cyclopropyl-2H-pyrazol-3-yl]-methyl]-3-[3-fluoro-4-(hydroxymethyl)-phenyl]-urea]",18
4,"CC(C)(C)c1cc(CNC(=O)Nc2ccc(CO)c(F)c2)n(-c2cccc(F)c2)n1 [A54, 1-[[5-tert-Butyl-2-(3-fluorophenyl)-2H-pyrazol-3-yl]-methyl]-3-[3-fluoro-4-(hydroxymethyl)-phenyl]-urea]",6
5,"CC(C)(C)c1cc(CNC(=O)Nc2ccc(CO)c(F)c2)n(-c2cccc(Cl)c2)n1 [A55, 1-[[5-tert-Butyl-2-(3-chlorophenyl)-2H-pyrazol-3-yl]-methyl]-3-[3-fluoro-4-(hydroxymethyl)-phenyl]-urea]",3
6,"Cc1cccc(-n2nc(C(C)(C)C)cc2CNC(=O)Nc2ccc(CO)c(F)c2)c1 [A56, 1-[[5-tert-Butyl-2-(m-tolyl)-2H-pyrazol-3-yl]-methyl]-3-[3-fluoro-4-(hydroxymethyl)-phenyl]-urea]",2
7,"CC(C)(C)c1cc(CNC(=O)Nc2ccc(CO)c(F)c2)n(-c2ccc(F)c(F)c2)n1 [A57, 1-[[5-tert-Butyl-2-(3,4-difluoro-phenyl)-2H-pyrazol-3-yl]-methyl]-3-[3-fluoro-4-(hydroxymethyl)-phenyl]-urea]",2
8,"O=C(NCc1cc(C(F)(F)F)nn1-c1ccccc1)Nc1ccc(CO)c(F)c1 [A58, 1-[3-Fluoro-4-(hydroxymethyl)-phenyl]-3-[[2-phenyl-5-(trifluoromethyl)-2H-pyrazol-3-yl]-methyl]-urea]",6
9,"O=C(NCc1cc(C(F)(F)F)nn1-c1cccc(Cl)c1)Nc1ccc(CO)c(F)c1 [A59, 1-[[2-(3-Chlorophenyl)-5-(trifluoromethyl)-2H-pyrazol-3-yl]-methyl]-3-[3-fluoro-4-(hydroxymethyl)-phenyl]-urea]",7
10,"O=C(NCc1cc(C(F)(F)F)nn1-c1ccc(Cl)cc1)Nc1ccc(CO)c(F)c1 [A60, 1-[[2-(4-Chlorophenyl)-5-(trifluoromethyl)-2H-pyrazol-3-yl]-methyl]-3-[3-fluoro-4-(hydroxymethyl)-phenyl]-urea]",10
11,"O=C(NCc1cc(C(F)(F)F)nn1-c1ccccc1F)Nc1ccc(CO)c(F)c1 [A61, 1-[3-Fluoro-4-(hydroxymethyl)-phenyl]-3-[[2-(2-fluorophenyl)-5-(trifluoromethyl)-2H-pyrazol-3-yl]-methyl]-urea]",26
12,"O=C(NCc1cc(C(F)(F)F)nn1-c1cccc(F)c1)Nc1ccc(CO)c(F)c1 [A62, 1-[3-Fluoro-4-(hydroxymethyl)-phenyl]-3-[[2-(3-fluorophenyl)-5-(trifluoromethyl)-2H-pyrazol-3-yl]-methyl]-urea]",30
13,"O=C(NCc1cc(C(F)(F)F)nn1-c1ccc(F)cc1)Nc1ccc(CO)c(F)c1 [A63, 1-[3-Fluoro-4-(hydroxymethyl)-phenyl]-3-[[2-(4-fluorophenyl)-5-(trifluoromethyl)-2H-pyrazol-3-yl]-methyl]-urea]",9
14,"O=C(NCc1cc(C(F)(F)F)nn1-c1ccc(F)c(F)c1)Nc1ccc(CO)c(F)c1 [A64, 1-[[2-(3,4-Difluoro-phenyl)-5-(trifluoromethyl)-2H-pyrazol-3-yl]-methyl]-3-[3-fluoro-4-(hydroxymethyl)-phenyl]-urea]",26
15,"O=C(NCc1cc(C(F)(F)F)nn1-c1ccc(F)c(Cl)c1)Nc1ccc(CO)c(F)c1 [A65, 1-[[2-(3-Chloro-4-fluoro-phenyl)-5-(trifluoromethyl)-2H-pyrazol-3-yl]-methyl]-3-[3-fluoro-4-(hydroxymethyl)-phenyl]-urea]",6
16,"O=C(NCc1cc(C(F)(F)F)nn1-c1cc(F)cc(F)c1)Nc1ccc(CO)c(F)c1 [A66, 1-[[2-(3,5-Difluoro-phenyl)-5-(trifluoromethyl)-2H-pyrazol-3-yl]-methyl]-3-[3-fluoro-4-(hydroxymethyl)-phenyl]-urea]",9
17,"COc1cccc(-n2nc(C(F)(F)F)cc2CNC(=O)Nc2ccc(CO)c(F)c2)c1 [A67, 1-[3-Fluoro-4-(hydroxymethyl)-phenyl]-3-[[2-(3-methoxyphenyl)-5-(trifluoromethyl)-2H-pyrazol-3-yl]-methyl]-urea]",43

row,SMILES,Ki [nM]
1,"COc1ccc(-n2nc(C(F)(F)F)cc2CNC(=O)Nc2ccc(CO)c(F)c2)cc1 [A68, 1-[3-Fluoro-4-(hydroxymethyl)-phenyl]-3-[[2-(4-methoxyphenyl)-5-(trifluoromethyl)-2H-pyrazol-3-yl]-methyl]-urea]",13
2,"Cc1ccccc1-n1nc(C(F)(F)F)cc1CNC(=O)Nc1ccc(CO)c(F)c1 [A69, 1-[3-Fluoro-4-(hydroxymethyl)-phenyl]-3-[[2-(o-tolyl)-5-(trifluoromethyl)-2H-pyrazol-3-yl]-methyl]-urea]",45
3,"Cc1cccc(-n2nc(C(F)(F)F)cc2CNC(=O)Nc2ccc(CO)c(F)c2)c1 [A70, 1-[3-Fluoro-4-(hydroxymethyl)-phenyl]-3-[[2-(m-tolyl)-5-(trifluoromethyl)-2H-pyrazol-3-yl]-methyl]-urea]",9
4,"Cc1ccc(-n2nc(C(F)(F)F)cc2CNC(=O)Nc2ccc(CO)c(F)c2)cc1 [A71, 1-[3-Fluoro-4-(hydroxymethyl)-phenyl]-3-[[2-(p-tolyl)-5-(trifluoromethyl)-2H-pyrazol-3-yl]-methyl]-urea]",42
5,"Cc1cccc(-n2nc(C(F)(F)F)cc2CNC(=O)Nc2ccc(CO)c(F)c2)c1C [A72, 1-[[2-(2,3-Dimethyl-phenyl)-5-(trifluoromethyl)-2H-pyrazol-3-yl]-methyl]-3-[3-fluoro-4-(hydroxymethyl)-phenyl]-urea]",14
6,"Cc1cc(C)cc(-n2nc(C(F)(F)F)cc2CNC(=O)Nc2ccc(CO)c(F)c2)c1 [A73, 1-[[2-(3,5-Dimethyl-phenyl)-5-(trifluoromethyl)-2H-pyrazol-3-yl]-methyl]-3-[3-fluoro-4-(hydroxymethyl)-phenyl]-urea]",27
7,"Cc1ccc(C)c(-n2nc(C(F)(F)F)cc2CNC(=O)Nc2ccc(CO)c(F)c2)c1 [A74, 1-[[2-(2,5-Dimethyl-phenyl)-5-(trifluoromethyl)-2H-pyrazol-3-yl]-methyl]-3-[3-fluoro-4-(hydroxymethyl)-phenyl]-urea]",44
8,"Cc1ccc(-n2nc(C(F)(F)F)cc2CNC(=O)Nc2ccc(CO)c(F)c2)cc1C [A75, 1-[[2-(3,4-Dimethyl-phenyl)-5-(trifluoromethyl)-2H-pyrazol-3-yl]-methyl]-3-[3-fluoro-4-(hydroxymethyl)-phenyl]-urea]",19
9,"Cc1cccc(-n2nc(C(F)(F)F)cc2CNC(=O)Nc2ccc(CO)c(F)c2)c1F [A76, 1-[3-Fluoro-4-(hydroxymethyl)-phenyl]-3-[[2-(2-fluoro-3-methyl-phenyl)-5-(trifluoromethyl)-2H-pyrazol-3-yl]-methyl]-urea]",41
10,"Cc1cc(F)cc(-n2nc(C(F)(F)F)cc2CNC(=O)Nc2ccc(CO)c(F)c2)c1 [A77, 1-[3-Fluoro-4-(hydroxymethyl)-phenyl]-3-[[2-(3-fluoro-5-methyl-phenyl)-5-(trifluoromethyl)-2H-pyrazol-3-yl]-methyl]-urea]",19
11,"Cc1cc(-n2nc(C(F)(F)F)cc2CNC(=O)Nc2ccc(CO)c(F)c2)ccc1Cl [A78, 1-[[2-(4-Chloro-3-methyl-phenyl)-5-(trifluoromethyl)-2H-pyrazol-3-yl]-methyl]-3-[3-fluoro-4-(hydroxymethyl)-phenyl]-urea]",11
12,"CCOc1ccc(-n2nc(C(F)(F)F)cc2CNC(=O)Nc2ccc(CO)c(F)c2)cc1C [A79, 1-[[2-(4-Ethoxy-3-methyl-phenyl)-5-(trifluoromethyl)-2H-pyrazol-3-yl]-methyl]-3-[3-fluoro-4-(hydroxymethyl)-phenyl]-urea]",20
13,"Cc1cc(-n2nc(C(F)(F)F)cc2CNC(=O)Nc2ccc(CO)c(F)c2)ccc1F [A80, 1-[3-Fluoro-4-(hydroxymethyl)-phenyl]-3-[[2-(4-fluoro-3-methyl-phenyl)-5-(trifluoromethyl)-2H-pyrazol-3-yl]-methyl]-urea]",7
14,"Cc1cc(-n2nc(C(F)(F)F)cc2CNC(=O)Nc2ccc(CO)c(F)c2)ccc1C#N [A81, 1-[[2-(4-Cyano-3-methyl-phenyl)-5-(trifluoromethyl)-2H-pyrazol-3-yl]-methyl]-3-[3-fluoro-4-(hydroxymethyl)-phenyl]-urea]",21
15,"CC(C)c1cccc(-n2nc(C(F)(F)F)cc2CNC(=O)Nc2ccc(CO)c(F)c2)c1 [A82, 1-[3-Fluoro-4-(hydroxymethyl)-phenyl]-3-[[2-(3-isopropyl-phenyl)-5-(trifluoromethyl)-2H-pyrazol-3-yl]-methyl]-urea]",2
16,"O=C(NCc1cc(C(F)(F)F)nn1-c1cccc(C(F)F)c1)Nc1ccc(CO)c(F)c1 [A83, 1-[[2-[3-(Difluoro-methyl)-phenyl]-5-(trifluoromethyl)-2H-pyrazol-3-yl]-methyl]-3-[3-fluoro-4-(hydroxymethyl)-phenyl]-urea]",12
